Laboratory results reported in PMC7810383 (Science Advances, 2021).
Peptide text beside a SMILES is read from it. * marks the point of attachment. Cbz = O=C(OCc1ccccc1)*; CH2F = FC*

Key:
[1] = test system: IAPs (BIRC2, BIRC3, XIAP, BIRC6); type: binding, human
[2] = test system: XIAP; type: biochemical, human
[3] = test system: BIRC2; type: cell-based, human
[4] = test system: hGID/CTLH complex; type: binding, human; settings: peptide on streptavidin beads, HeLa lysate, quantitative MS
[5] = test system: PARP cleavage in HeLa cells; type: cell-based, human; settings: NAA10 RNAi 72 hours, Z-VAD-FMK 40 μM, anti-PARP immunoblot

Molecule	IAP enrichment in peptide pull-down, Nt-free versus Nt-Ac peptide [1]	Ubiquitination of streptavidin-bound peptide by XIAP (anti-ubiquitin immunoblot) [2]	also measured
H-ATPFQEGLRTFKKK-K(Biotin)-NH2 [CASP9 Nt-free biotinylated peptide, reference compound]	preferential binding partners	levels that were comparable	–
H-MDDDIAALVVKKK-PEG-(Biotin) [ACTB Nt-free biotinylated peptide]	did not enrich IAPs	–	–
H-AQFAFESDLHSLLQL-PEG-K(Biotin)-CONH2 [CDC20 Nt-free biotinylated peptide]	robust interactions	–	–
H-AAAGAAATHLKK-K-(Biotin)-NH2 [PIGS Nt-free biotinylated peptide]	no IAP enrichment	not ubiquitinated	–
H-AVGKNKRLTKK-K-FITC [RPS3A Nt-free peptide]	no IAP enrichment	–	–
H-ASVGECPAPVKK-K-(Biotin)-NH2 [ATP5J2 Nt-free biotinylated peptide]	identified IAPs as binding partners	–	–
CN[C@@H](C)C(=O)N[C@H](C(=O)N1CCC[C@H]1c1nc(C(=O)c2ccc(F)cc2)cs1)C1CCCCC1 [LCL161]	–	–	BIRC2 levels [3]: IAP depletion
H-AAPEEHDSPTKK-K-(Biotin)-NH2 [DDX47 Nt-free biotinylated peptide]	identified IAPs as binding partners	strongly ubiquitinated	–
H-AAPWRRWPTGKK-K-(Biotin)-NH2 [TMEM223 Nt-free biotinylated peptide]	identified IAPs as binding partners	–	–
Ac or H-AAAGAAATHLKK-K-(Biotin)-NH2 [PIGS Nt-Ac biotinylated peptide]	–	not ubiquitinated	–
H-AVPAALILREKK-K(Biotin)-NH2 [COMMD10 Nt-free biotinylated peptide]	strongly enriched	strongly ubiquitinated	hGID/CTLH complex enrichment in peptide pull-down [4]: also enriched
H-AVPSPPPASPKK-K(Biotin) [HTRA2 Nt-free biotinylated peptide, reference compound]	preferential binding partners	–	–
H-AVPIAQKSEPFKKK-K(Biotin)-NH2 [DIABLO Nt-free biotinylated peptide, reference compound]	preferential binding partners	levels that were comparable	–
H-APPSVFAEVPQAQPV-PEG-K(Biotin)-CONH2 [GOT1 Nt-free biotinylated peptide]	no IAP enrichment	–	–
COC(=O)C[C@H](NC(=O)[C@H](C)NC(=O)[C@@H](NC(=O)OCc1ccccc1)C(C)C)C(=O)CF [Z-VAD, Benzyloxycarbonyl-Val-Ala-Asp-fluoromethyl ketone] (Cbz-Val-Ala-Asp(OMe)-CH2F)	–	–	PARP cleavage induced by NatA RNAi [5]: inhibited
H-MAVPAALILREKK-K(Biotin) [Met-COMMD10 Nt-free biotinylated peptide]	did not enrich IAPs	–	–
H-MEELIVELRLKKK-PEG-(Biotin) [AFAP1 Nt-free biotinylated peptide]	did not enrich IAPs	–	–
Ac or H-AQFAFESDLHSLLQL-PEG-K(Biotin)-CONH2 [CDC20 Nt-Ac biotinylated peptide]	no enrichment	–	–
H-AISSSSCELPLVAVF-PEG-K(Biotin)-CONH2 [NIT1 Nt-free biotinylated peptide]	strongly enriched	–	–
